From patent US20060116505A1, “Glucose and/or fructose transporter naglt1 and its gene” (priority 2002, published 2006) come the findings set out here.

In one assay the target is T1, rNaGLT1 (Rattus norvegicus, UniProt Q80T22, M166I/S3F).
T1 construct: expressed in transfected cells; host or cells: HEK293 cells, transient transfection, assayed 2 days later
T1 sequence (Q80T22 1-484 S3F/M166I): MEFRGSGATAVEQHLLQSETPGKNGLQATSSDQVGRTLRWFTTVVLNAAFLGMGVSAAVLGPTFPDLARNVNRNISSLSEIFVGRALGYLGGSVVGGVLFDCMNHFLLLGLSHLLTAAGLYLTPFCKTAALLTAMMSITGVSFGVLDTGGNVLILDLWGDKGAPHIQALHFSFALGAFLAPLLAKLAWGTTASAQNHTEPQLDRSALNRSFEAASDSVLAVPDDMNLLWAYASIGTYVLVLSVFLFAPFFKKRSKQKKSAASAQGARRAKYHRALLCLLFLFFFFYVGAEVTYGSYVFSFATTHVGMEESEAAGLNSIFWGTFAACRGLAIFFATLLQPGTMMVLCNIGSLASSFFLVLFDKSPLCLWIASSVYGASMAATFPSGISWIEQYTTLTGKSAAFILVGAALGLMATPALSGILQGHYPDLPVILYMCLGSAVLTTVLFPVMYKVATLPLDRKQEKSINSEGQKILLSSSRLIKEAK
Kind of assay: Uptake of [14C] fructose by HEK293 cells transfected with rNaGLT1. Type of assay: cell-based. Conditions: [14C] fructose 0.1 mM, 15 minutes at 37° C., glucose analog 30 mM, phloridzin or phloretin 50 μM; for Uptake of [14C] fructose by HEK293 cells expressing rNaGLT1: vector uptake deducted.

The test system of assay [1] is renal brush border membrane vesicles. Kind of assay: Na+-dependent uptake of [14C] fructose by renal brush border membrane vesicles. Type of assay: biochemical, rat. Particulars: [14C] fructose 2 mM, 15 seconds at 25° C., glucose analog 30 mM, phloridzin or phloretin 50 μM; for Na+-dependent uptake of [14C] fructose by renal brush border membrane vesicles: KCl uptake deducted.
Description: Membrane vesicles (20 μl) suspended in 100 mM mannitol and 10 mM HEPES (pH 7.5) were incubated with a substrate mixture (20 μl) containing 100 mM mannitol, 200 mM NaCl (black circle: ●) or KCl (white circle: ∘), 4 mM [^14C] fructose and 10 mM HEPES (pH 7.5) at 25° C. The values indicate mean±S.E.M of 3 independent experiments, respectively. Each experiment was conducted with brush border membrane vesicles isolated from 5 rats.
Na^+-dependent uptake of fructose by renal brush border membrane vesicles was analyzed in the presence of NaCl in an incubation buffer solution of various concentrations (0.1 to 20 mM) for 15 seconds at 25° C., and the uptake in case where NaCl is substituted with KCl was deduced. […] Each point indicates mean±S.E.M of 3 measurements. The apparent Km and Vmax values were obtained from 3 independent experiments.
In the presence and absence of phloridzin (50 μM) or phloretin (50 μM), a glucose analog (30 mM), membrane vesicles (20 μl) suspended in 100 mM mannitol and 10 mM HEPES (pH 7.5) were incubated with a substrate mixture (20 μl) containing [^14C] fructose (finally, 2 mM, 74 kBq/ml) for 15 seconds at 25° C., and the uptake in case where NaCl is substituted with KCl was deduced. […] The values indicate mean±S.E.M of 3 independent experiments, respectively.

The target of assay [2] is T2, NaGLT1 (Rattus norvegicus, UniProt Q80T22, M166I/S3F).
T2 construct: expressed in transfected cells; host or cells: Xenopus oocytes injected with NaGLT1 RNA synthesized in vitro
T2 sequence (Q80T22 1-484 S3F/M166I): T1 sequence (Q80T22 1-484 S3F/M166I)
The assay is described as follows: Effect of inhibitors on uptake of [14C]-labeled αMeGlc by NaGLT1-expressing oocytes. Type of assay: cell-based. The method, then: (§1) Uptake activity of NaGLT1 cRNA-injected cell and water-injected oocyte to [U-^14C]-α-methyl-D-glucopyranoside (α-MeGlc), D-[1-^14C] galactose, D-[U-^14C] mannose, D-[U-^14C] fructose, [1,2-^3H]-2-deoxy-glucose, D-[1-^3H] mannitol, [U-^14C] sucrose was measured. At that time, incubation was conducted in a buffer solution comprising 96 mM NaCl, 2 mM KCl, 1.8 mM CaCl2, 1 mM MgCl2, 5 mM HEPES (pH 7.4). Further, when extracellular Na^+ concentration dependency was conducted, the concentration of NaCl was adjusted to be within the range of 9.6 to 96 mM, and the final osmotic pressure was kept constant by making up for the shortage to 96 mM with choline chloride (FIGS. 6 and 7).

The target in assay [3] is T2, NaGLT1. The assay is described as follows: Uptake of radio-labeled saccharides by NaGLT1-expressing Xenopus oocytes. Type of assay: cell-based. The procedure:
Transportation activity of NaGLT1 was examined with the expression system of Xenopus oocytes (hereinafter abbreviated as oocytes). First, in order to examine the selectivity of various saccharides, NaGLT1 RNA synthesized in vitro was injected into the oocyte and incubated for 2 days at 18° C., then used for the experiment.
as §1
Next, concentration dependency of αMeGlc uptake was examined by using NaGLT1-expressing oocytes. […] In addition, the effect of extracellular Na^+ ion concentration on the uptake of αMeGlc mediated by NaGLT1 was analyzed. First, extracellular Na^+ concentration was varied from 0 to 96 mM, at the state wherein membrane potential difference was eliminated by the addition of 7 μM valinomycin, and the effect of extracellular Na^+ on the uptake of αMeGlc by rNaGLT1 was examined. […] Further, by examination of dose- or extracellular Na^+-dependancy to the uptake of αMeGlc by rNaGLT1 (FIGS. 6A and 6C), Vmax value (the maximum transport rate) and Km value were calculated for each case. Based on those values, Hill plot (logarithmic values of the figure calculated by dividing Vmax by transport rate V when the abscissa axis is the concentration of varied substrate or ion, and ordinate axis is each substrate (or ion) concentration) was conducted (FIGS. 6B and 6D) and Hill coefficient was calculated. […]

SMILES strings stand for the structures.

Description for rNaGLT1: As to HEK293 cells incubated with buffer solution containing glucose analog (0.1 mM, 37 kBq/ml) for 15 minutes at 37° C., uptake analysis was conducted 2 days after the transfection of a vector (white column, 0.8 μg/well) or rNaGLT1 cDNA (black column, 0.8 μg/well). Each column indicates mean±S.E.M obtained from 3 single layers.
In the presence and absence of phloridzin (50 μM) or phloretin (50 μM), a glucose analog (30 mM), the uptake of [^14C] fructose (0.1 mM, 37 kBq/ml) by HEK293 cells transfected with rNaGLT1 was measured for 15 minutes at 37° C., and the uptake measured in HEK293 cells transfected with a vector was deducted. […] The values indicate mean±S.E.M of 3 independent experiments, respectively.

In the case of `OC[C@H]1O[C@H](CO)[C@@H](O)[C@@H]1O` [2,5-AM], at rNaGLT1, the “Uptake of [14C] fructose by HEK293 cells expressing rNaGLT1, % of control” value is reported as 40 % of control and the “Uptake of [14C] fructose by HEK293 cells expressing rNaGLT1” value is 1.16 ± 0.16 Pmol/mg protein/min. In addition, in assay [1], the “Na+-dependent uptake of [14C] fructose by renal brush border membrane vesicles, % of control” value (“Na+-dependent uptake … % of control” for short) is given as 78 % of control and the “Na+-dependent uptake of [14C] fructose by renal brush border membrane vesicles” value was found to be 38.6 ± 2.6 Pmol/mg protein/sec.

For `O=CC[C@@H](O)[C@H](O)[C@H](O)CO` [2-DG, 2-deoxyglucose], the “effect on the uptake of [14C]-labeled αMeGlc” value (“effect on the uptake” below) on NaGLT1 [2] is “extremely strong inhibitory effect”. For the same compound, on rNaGLT1, the “Uptake of [14C] fructose by HEK293 cells expressing rNaGLT1, % of control” value is listed as 70 % of control and the “Uptake of [14C] fructose by HEK293 cells expressing rNaGLT1” value is recorded as 2.04 ± 0.19 Pmol/mg protein/min. Moreover, in assay [1], the “Na+-dependent uptake … % of control” value is listed as 34 % of control and the “Na+-dependent uptake of [14C] fructose by renal brush border membrane vesicles” value was determined as 16.8 ± 3.7 Pmol/mg protein/sec.

Regarding `CO[C@@H]([C@H](O)[C@H](O)CO)[C@@H](O)C=O` [3-OMG, 3-O-methylglucose], at NaGLT1 [2], the “effect on the uptake” value was “no effect”. At rNaGLT1, the “Uptake of [14C] fructose by HEK293 cells expressing rNaGLT1, % of control” value is given as 89 % of control and the “Uptake of [14C] fructose by HEK293 cells expressing rNaGLT1” value was determined as 2.60 ± 0.15 Pmol/mg protein/min. Besides, in assay [1], the “Na+-dependent uptake … % of control” value is on record as 95 % of control and the “Na+-dependent uptake of [14C] fructose by renal brush border membrane vesicles” value came out at 47.1 ± 4.5 Pmol/mg protein/sec.

Regarding `O=C[C@H](O)[C@@H](O)[C@H](O)[C@H](O)CO` [D-glucose], the “effect on the uptake” value at NaGLT1 [2] is given as “extremely strong inhibitory effect”.

Turning to `O=C(CO)[C@@H](O)[C@H](O)[C@H](O)CO` [Fructose, fructose], the “effect on the uptake” value on NaGLT1 [2] is reported as “weak inhibitory effect”. On rNaGLT1, the “Uptake of [14C] fructose by HEK293 cells expressing rNaGLT1, % of control” value is on record as 8 % of control and the “Uptake of [14C] fructose by HEK293 cells expressing rNaGLT1” value was found to be 0.22 ± 0.06 Pmol/mg protein/min. Besides, in assay [1], the “Na+-dependent uptake … % of control” value is 11 % of control and the “Na+-dependent uptake of [14C] fructose by renal brush border membrane vesicles” value was 5.4 ± 2.1 Pmol/mg protein/sec.

`O=C[C@H](O)[C@@H](O)[C@@H](O)[C@H](O)CO` [Galactose, galactose]: the “effect on the uptake” value at NaGLT1 [2] was “no effect”. Further, on rNaGLT1, the “Uptake of [14C] fructose by HEK293 cells expressing rNaGLT1, % of control” value is recorded as 99 % of control and the “Uptake of [14C] fructose by HEK293 cells expressing rNaGLT1” value is 2.88 ± 0.23 Pmol/mg protein/min. In addition, in assay [1], the “Na+-dependent uptake … % of control” value is reported as 71 % of control and the “Na+-dependent uptake of [14C] fructose by renal brush border membrane vesicles” value turned out to be 35.2 ± 3.3 Pmol/mg protein/sec.

`O=C[C@@H](O)[C@H](O)[C@@H](O)[C@@H](O)CO` [L-glucose]: the “effect on the uptake” value at NaGLT1 [2] is reported as “no effect”.

Take `O=C(CCc1ccc(O)cc1)c1c(O)cc(O)cc1O` [Phloretin, phloretin]: the “effect on the uptake” value at NaGLT1 [2] is on record as “weak inhibitory effect”. In addition, on rNaGLT1, the “Uptake of [14C] fructose by HEK293 cells expressing rNaGLT1, % of control” value is listed as 33 % of control and the “Uptake of [14C] fructose by HEK293 cells expressing rNaGLT1” value was 0.97 ± 0.09 Pmol/mg protein/min. In assay [1], the “Na+-dependent uptake … % of control” value is 72 % of control and the “Na+-dependent uptake of [14C] fructose by renal brush border membrane vesicles” value was 35.8 ± 3.5 Pmol/mg protein/sec.

For the compound `O=C(CCc1ccc(O)cc1)c1c(O)cc(O)cc1O[C@@H]1O[C@H](CO)[C@@H](O)[C@H](O)[C@H]1O` [Phloridzin, phloridzin], at rNaGLT1, the “Uptake of [14C] fructose by HEK293 cells expressing rNaGLT1, % of control” value was 12 % of control.

On to `OC[C@H]1O[C@@](CO)(O[C@H]2O[C@H](CO)[C@@H](O)[C@H](O)[C@H]2O)[C@@H](O)[C@@H]1O` [Sucrose, sucrose], for which, at rNaGLT1, the “Uptake of [14C] fructose by HEK293 cells expressing rNaGLT1, % of control” value is 144 % of control and the “Uptake of [14C] fructose by HEK293 cells expressing rNaGLT1” value is recorded as 4.20 ± 0.17 Pmol/mg protein/min. Further, in assay [1], the “Na+-dependent uptake … % of control” value is given as 96 % of control and the “Na+-dependent uptake of [14C] fructose by renal brush border membrane vesicles” value is 47.3 ± 6.0 Pmol/mg protein/sec.

In the case of `CO[C@H]1O[C@H](CO)[C@@H](O)[C@H](O)[C@H]1O` [αMeGlc, α-methyl-D-glucopyranoside], the “effect on the uptake” value on NaGLT1 [2] is “extremely strong inhibitory effect”. Further, on NaGLT1 [3] (Hill plot of αMeGlc uptake by rNaGLT1, dose- or extracellular Na+-dependency), the Hill coefficient – broadly, a measure of the steepness of the concentration-response curve – turned out to be 1.06. Also, at NaGLT1 [3] (NaGLT1-expressing oocytes, concentration dependency, read-out: Km value of αMeGlc uptake), the Km (usually the concentration of substrate that gives half-maximal velocity) was determined as 3.71 ± 0.09 mM. For the same compound, the “uptake of radio-labeled saccharide in comparison to water-injected oocytes” value on NaGLT1 [3] (NaGLT1 RNA-injected Xenopus oocytes, incubated 2 days at 18° C.) is “significantly high”. At rNaGLT1, the “Uptake of [14C] fructose by HEK293 cells expressing rNaGLT1, % of control” value is reported as 42 % of control and the “Uptake of [14C] fructose by HEK293 cells expressing rNaGLT1” value is reported as 1.24 ± 0.13 Pmol/mg protein/min. For the same compound, in assay [1], the “Na+-dependent uptake … % of control” value is recorded as 48 % of control and the “Na+-dependent uptake of [14C] fructose by renal brush border membrane vesicles” value was found to be 23.8 ± 2.1 Pmol/mg protein/sec.
